# In US5169855A, “Piperidine ether derivatives as psychotropic drugs or plant fungicides” (priority 1990, dated 1992):
# What was measured:
# [1] = system: isolation-induced aggressive behavior; experiment: Isolation-Induced Aggression in Mice; format: in vivo, mouse (male Balb/c); conditions: po
# Method: Male Balb/c mice (Charles River) were used. […] Isolated mice failing to consistently attack an intruder were eliminated from the colony.
# Drug testing was carried out by treating the isolated mice with test drugs or standards. Fifteen min after dosing with drugs by the oral route (po), one isolated mouse was removed from its home cage and placed in the home cage of another isolate. Scoring was a yes or no response for each pair. A maximum of 3 min was allowed for an attack and the pair was separated immediately upon an attack. Selection of home cage and intruder mice was randomized for each test. Mice were treated and tested twice a week with at least a 2 day washout period between treatments.
# Rhizoctonia solani = experiment: Test I: rice sheath blight disease control (rice seedlings); format: in vivo; conditions: sprayed at 1000 to 2 ppm (rate not given per compound)
# Method: The test compounds were dissolved in acetone in an amount equal to 6% of the final volume and then suspended at a concentration of from 1000 to 2 ppm in purified water containing 250 ppm of the surfactant TREM 014 (polyhydric alcohol esters). This suspension was sprayed to the point of run-off on rice seedlings. The following day plants were inoculated with a mycelial suspension of Rhizoctonia solani, the causal agent of rice sheath blight, and incubated in a saturated humidity chamber at 27° C. for 48 hours and then in a growth chamber at 29° C. for 4 days, when disease ratings were made.
# Phytophthora infestans = format: in vivo; conditions: tomato late blight; sprayed at 1000 to 2 ppm (rate not given per compound)
# [2] = system: Erysiphe graminis f. sp. tritici; experiment: Test A: wheat powdery mildew disease control (wheat seedlings); format: in vivo; conditions: sprayed at 1000 to 2 ppm (rate not given per compound)
# Method: The test compounds were dissolved in acetone in an amount equal to 6% of the final volume and then suspended at a concentration of from 1000 to 2 ppm in purified water containing 250 ppm of the surfactant TREM 014 (polyhydric alcohol esters). This suspension was sprayed to the point of run-off on wheat seedlings. The following day plants were inoculated with a spore dust of Erysiphe graminis f. sp. tritici, the causal agent of wheat powdery mildew, and incubated in a growth chamber at 20° C. for 7 days, when disease ratings were made.
# Pyricularia oryzae = format: in vivo; conditions: rice blast; sprayed at 1000 to 2 ppm (rate not given per compound)
# Venturia inaequalis = experiment: Test C: apple scab disease control (apple seedlings); format: in vivo; conditions: sprayed at 1000 to 2 ppm (rate not given per compound)
# Method: The test compounds were dissolved in acetone in an amount equal to 6% of the final volume and then suspended at a concentration of from 1000 to 2 ppm in purified water containing 250 ppm of the surfactant TREM 014 (polyhydric alcohol esters). This suspension was sprayed to the point of run-off on apple seedlings. The following day plants were inoculated with a spore suspension of Venturia inaequalis, the causal agent of apple scab, and incubated in a saturated humidity chamber at 20° C. for 24 hours and then in a growth chamber at 22° C. for 11 days, when disease ratings were made.
# Cercosporidum personatum = experiment: Test D: peanut late leaf spot disease control (peanut seedlings); format: in vivo; conditions: sprayed at 1000 to 2 ppm (rate not given per compound)
# Method: The test compounds were dissolved in acetone in an amount equal to 6% of the final volume and then suspended at a concentration of from 1000 to 2 ppm in purified water containing 250 ppm of the surfactant TREM 014 (polyhydric alcohol esters). This suspension was sprayed to the point of run-off on peanut seedlings. The following day plants were inoculated with a spore suspension of Cercosporidum personatum, the causal agent of peanut late leaf spot, and incubated in a saturated humidity chamber at 22° C. for 24 hours and then in a high humidity chamber at 27° C. for 7 days, and then in a growth chamber at 29° C. for 7 days, when disease ratings were made.
# Puccinia recondita = experiment: Test B: wheat leaf rust disease control (wheat seedlings); format: in vivo; conditions: sprayed at 1000 to 2 ppm (rate not given per compound)
# Method: The test compounds were dissolved in acetone in an amount equal to 6% of the final volume and then suspended at a concentration of from 1000 to 2 ppm in purified water containing 250 ppm of the surfactant TREM 014 (polyhydric alcohol esters). This suspension was sprayed to the point of run-off on wheat seedlings.
# Botrytis cinerea = experiment: Test E: cucumber grey mold disease control (cucumber seedlings); format: in vivo; conditions: sprayed at 1000 to 2 ppm (rate not given per compound)
# Method: The test compounds were dissolved in acetone in an amount equal to 6% of the final volume and then suspended at a concentration of from 1000 to 2 ppm in purified water containing 250 ppm of the surfactant TREM 014 (polyhydric alcohol esters). This suspension was sprayed to the point of run-off on cucumber seedlings. The following day plants were inoculated with a spore suspension of Botrytis cinerea, the causal agent of cucumber grey mold, and incubated in a saturated humidity chamber at 20° C. for 48 hours and then in a greenhouse for 5 days, when disease ratings were made.
# Plasmopara viticola = experiment: Test G: grape downy mildew disease control (grape seedlings); format: in vivo; conditions: sprayed at 1000 to 2 ppm (rate not given per compound)
# Method: The test compounds were dissolved in acetone in an amount equal to 6% of the final volume and then suspended at a concentration of from 1000 to 2 ppm in purified water containing 250 ppm of the surfactant TREM 014 (polyhydric alcohol esters). This suspension was sprayed to the point of run-off on grape seedlings. The following day plants were inoculated with a spore suspension of Plasmopara viticola, the causal agent of grape downy mildew, and incubated in a dew chamber at 20° C. for 24 hours and then in a growth chamber a 20° C. for 7 days, when disease ratings were made.
Structure (SMILES),inhibiting the isolation-induced aggressive behavior (in words) [1],"disease control rating, Test I (Rhizoctonia solani) [%]","disease control rating, Test F (Phytophthora infestans) [%]","disease control rating, Test A [2] [%]","disease control rating, Test H (Pyricularia oryzae) [%]","disease control rating, Test C (Venturia inaequalis) [%]","disease control rating, Test D (Cercosporidum personatum) [%]","disease control rating, Test B (Puccinia recondita) [%]","disease control rating, Test E (Botrytis cinerea) [%]","disease control rating, Test G (Plasmopara viticola) [%]"
Fc1ccc(COCC2CCN(Cc3ccc4ccccc4c3)CC2)cc1 [Example 114],potent activities,,,,,,,,,
Clc1ccc(OCC2CCN(Cc3ccccc3)CC2)cc1 [Example 134],potent activities,,,,,,,,,
O=[N+]([O-])c1ccc(OCC2CCN(Cc3ccccc3)CC2)cc1 [Example 135],potent activities,,,,,,,,,
FC(F)(F)c1ccc(OCC2CCN(Cc3ccccc3)CC2)cc1 [Example 136],potent activities,,,,,,,,,
Fc1ccc(OCC2CCN(Cc3ccc(Cl)cc3)CC2)cc1 [Example 138],potent activities,,,,,,,,,
Fc1ccc(COCC2CCN(Cc3ccccc3)CC2)cc1 [Example 181],potent activities,0,0,87,0,55,82,37,,
COc1ccc(COCC2CCN(Cc3ccccc3)CC2)cc1 [Example 182],,0,0,63,0,0,0,27,,
c1ccc(COCC2CCN(Cc3ccccc3)CC2)cc1 [Example 185],,0,0,29,0,28,26,0,0,
COC(=O)c1ccc(COCC2CCN(Cc3ccccc3)CC2)cc1 [Example 186],,0,0,0,0,81,0,,0,
COC(=O)c1ccc(CN2CCC(COCc3ccc(F)cc3)CC2)cc1 [Example 187],,0,0,98,0,51,0,96,0,
Oc1ccc(CN2CCC(COCc3ccc(F)cc3)CC2)cc1 [Example 189],,0,0,99,0,86,75,26,0,
Fc1ccc(COCC2CCN(Cc3ccc4ccccc4c3)CC2)cc1 [Example 195],,0,0,99,0,68,46,73,0,
Fc1ccc(COCC2CCN(Cc3cccc4ccccc34)CC2)cc1 [Example 196],,0,26,0,0,90,0,,0,40
Fc1ccc(COCC2CCN(Cc3ccccc3)CC2)cc1 [Example 205],,0,0,94,0,66,30,35,33,
CCCCCCN1CCC(COCc2ccc(F)cc2)CC1 [Example 312],,0,0,97,0,16,51,27,0,
Fc1ccc(COCC2CCN(CCCc3ccccc3)CC2)cc1 [Example 313],,0,0,97,0,40,91,29,0,
CC(C)=CCN1CCC(COCc2ccc(F)cc2)CC1 [Example 314],,39,0,91,0,46,75,,8,
Fc1ccc(COC2CCN(Cc3ccccc3)CC2)cc1 [Example 315],,19,0,99,0,90,46,52,0,
